Results from paper PMC3173978, “Kinetic Characterisation of Phosphofructokinase Purified from Setaria cervi: A Bovine Filarial Parasite” (Enzyme Research, 2011).
pKi: −log10 of the molar value.

What was measured:
[1] = test system: T1, S. cervi PFK (phosphofructokinase); assay: coupled assay (aldolase/TPI/GDH, NADH oxidation at […] nm), Lineweaver-Burk; assay type: biochemical, Setaria cervi; conditions: 50 and 100 μM ATP, 3.3 mM Mg2+, pH 8.0
T1 construct: native enzyme purified to electrophoretic homogeneity from adult female worms (from buffalo peritoneal folds); subunit mass 90 kDa

[2] = molecular target: T1, S. cervi PFK (phosphofructokinase); assay: as above; assay type: biochemical, Setaria cervi; conditions: competitive vs F-6-P, 0.1 mM ATP, 3.3 mM Mg2+, Tris-HCl pH 8.0

O=P(O)(O)OC[C@H]1OC(O)(CO)[C@@H](O)[C@@H]1O (stereo partly drawn) [F-6-P, D-fructose-6-phosphate]
Km [1]: 1050 µM

O=P(O)(O)OC[C@H]1OC(O)(COP(=O)(O)O)[C@@H](O)[C@@H]1O (stereo partly drawn) [FDP, D-fructose-1,6-diphosphate]
pKi ([2]; aldolase in coupling system acts on FDP): 6.74

C=C(OP(=O)(O)O)C(=O)O [PEP, phosphoenolpyruvate]
pKi [2]: 3.10
